Laboratory results: patent US20230416256A1, “SMALL MOLECULE INHIBITORS OF NF-kB INDUCING KINASE” (Janssen Pharmaceutica NV, priority 2020, published 2023)
Where two headings read alike, the source gives them in different places.

Assays:
[1] = target: recombinant human NF-kappaB-inducing kinase (NIK/MAP3K14) (Homo sapiens, UniProt Q99558); experiment: Inhibition of auto-phosphorylation of recombinant human NIK/MAP3K14 activity (AlphaScreen); format: biochemical; conditions: GST-tagged NIK/MAP3K14 1 nM, 5 μM ATP, 2 h at 25° C.; average of values obtained
Sequence of recombinant human NF-kappaB-inducing kinase (NIK/MAP3K14) (Q99558 whole entry): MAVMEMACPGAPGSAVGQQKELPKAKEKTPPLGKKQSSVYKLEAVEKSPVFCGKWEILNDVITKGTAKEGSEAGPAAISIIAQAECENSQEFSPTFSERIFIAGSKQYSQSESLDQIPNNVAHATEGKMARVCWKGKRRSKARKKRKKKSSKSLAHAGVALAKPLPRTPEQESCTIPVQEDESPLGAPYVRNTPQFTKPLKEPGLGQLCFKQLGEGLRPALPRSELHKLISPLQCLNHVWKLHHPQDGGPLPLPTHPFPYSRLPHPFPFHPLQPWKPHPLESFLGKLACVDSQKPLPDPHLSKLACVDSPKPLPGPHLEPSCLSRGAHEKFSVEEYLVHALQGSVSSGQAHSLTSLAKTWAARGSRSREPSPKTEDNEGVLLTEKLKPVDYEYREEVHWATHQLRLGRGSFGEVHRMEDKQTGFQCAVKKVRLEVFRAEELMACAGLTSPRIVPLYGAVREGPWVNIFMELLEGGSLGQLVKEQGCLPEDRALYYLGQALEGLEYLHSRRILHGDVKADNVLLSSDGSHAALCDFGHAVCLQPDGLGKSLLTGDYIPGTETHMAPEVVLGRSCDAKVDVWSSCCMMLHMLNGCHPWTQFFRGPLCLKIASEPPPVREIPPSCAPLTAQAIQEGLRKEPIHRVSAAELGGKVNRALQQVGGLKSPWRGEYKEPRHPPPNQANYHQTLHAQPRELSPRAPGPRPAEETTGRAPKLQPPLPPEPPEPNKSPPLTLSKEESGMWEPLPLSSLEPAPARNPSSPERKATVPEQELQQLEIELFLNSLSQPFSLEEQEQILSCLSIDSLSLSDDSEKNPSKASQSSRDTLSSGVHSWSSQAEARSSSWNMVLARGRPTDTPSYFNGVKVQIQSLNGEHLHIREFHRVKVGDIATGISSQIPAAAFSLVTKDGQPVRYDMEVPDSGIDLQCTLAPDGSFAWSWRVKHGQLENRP
Experimental: Inhibition of Auto-Phosphorylation of Recombinant Human NF-kappaB-Inducing Kinase (NIK/MAP3K14) Activity (AlphaScreen®)
NIK/MAP3K14 auto-phosphorylation activity was measured using the AlphaScreen® (αscreen) format (Perkin Elmer). All compounds tested were dissolved in dimethyl sulfoxide (DMSO) and further dilutions were made in assay buffer. The final DMSO concentration was 0.7% (v/v) in assays. The assay buffer was 50 mM Tris pH 7.5 containing 1 mM EGTA (ethylene glycol tetraacetic acid), 1 mM DTT (dithiothreitol), 0.1 mM Na3VO4, 5 mM MgCl2, and 0.01% Tween® 20. The assays were carried out in 384 well Proxiplates (Perkin Elmer). The incubations consisted of the compound, 5 μM Adenosine-5′-triphosphate (ATP), and 1 nM NIK/MAP3K14. Incubations were initiated by the addition of GST-tagged NIK/MAP3K14 enzyme, carried out for 2 h at 25° C. and terminated by addition of stop buffer containing anti-phospho-IKK Ser176/180 antibody. Protein A Acceptor and Glutathione-Donor beads were added before reading using an EnVision Multilabel Plate Reader (Perkin Elmer). The signal obtained in the wells was normalized using high (full enzyme activity, 0.7% DMSO) and low controls (no enzyme activity, 0.7% DMSO, no ATP). IC50's were determined by fitting a sigmoidal curve to % inhibition of control versus Log10 compound concentration.

[2] = tested on: p-IKKα levels in L363 (NIK translocated multiple myeloma) cells; experiment: Effect of compounds on p-IKKα levels in L363 cells (AlphaLISA SureFire Ultra); format: cell-based, human; conditions: Homo sapiens, 10 μM MG132, 6 h, average of values obtained, read-out: Assay 2 IC50
Experimental: Effect of Compounds on p-IKKα Levels in L363 (NIK Translocated Multiple Myeloma) Cells
All compounds tested were dissolved and serially diluted in DMSO, 1:3 dilution for 11 points in an Echo compatible plate. 100% DMSO was added to columns 12 and 24 of the plate to serve as high and low signal controls. This compound plate was used to spot 20 nL of compound or DMSO into a Greiner 384 well TC plate (781080). The final DMSO concentration was 0.3% (v/v) in cell assays. Human L363 cells (ATCC) were cultured in RPMI1640 medium supplemented with GlutaMax, non-essential amino acids, sodium pyruvate and 10% fetal bovine serum. Cells were routinely maintained at densities of […]-2×10^6 cells per mL at 37° C. in a humidified 5% CO2 atmosphere incubator. Cells were passaged twice a week splitting back to obtain the low density. The day before the assay, cells were washed twice in HBSS (Hank's Balanced Salt Solution), resuspended in Dulbecco's Modified Eagle Medium (DMEM)+0.5% IgG and protease free BSA (Jackson Immuno Research Laboratories), +/−250 ng/ml recombinant human B-cell activating factor (BAFF/BLyS/TNFSF13B) and incubated overnight at 37° C. in a humidified 5% CO2 atmosphere (bulk stimulation with or without BAFF). The next day, the cell concentration was adjusted to 1×10^7 cells/ml in DMEM+/−250 ng/ml BAFF+/10 μM MG132 and plated at […] into compound or DMSO spotted 384 well TC plates. Seeded cells were incubated at 37° C. in a humidified 5% CO2 atmosphere for 6 h. After 6 h, the plates were removed from the incubator and cell lysis was achieved by the addition of 2.5 μl 5×lysis buffer containing protease and phosphatase inhibitors, followed by shaking on a plate shaker at room temperature for 15 min. At the end of this incubation, lysed cells were sequentially treated and incubated with acceptor and donor bead mixes according to the manufacturer's protocol for a 1 plate/2-incubation suspension cell assay (AlphaLISA SureFire Ultra p-IKKa (Ser 176/180) Assay Kit (Perkin Elmer). Plates were read using an EnVision Multilabel Plate Reader (Perkin Elmer). Within an experiment, a concentration response curve for each compound was run in duplicate. The signal obtained in the test wells was normalized using high signal (BAFF stimulated cells, DMSO, MG132) and low signal (unstimulated cells, DMSO) controls. To determine the IC50, a sigmoidal curve was fitted to the plot of % inhibition versus Log10 compound concentration.

[3] = L-363, 6 h, 250 ng/ml BAFF stimulated
[4] = L-363, 250 ng/ml BAFF stimulated

Row | SMILES | IC50 [1] [nM] | IC50 [2, 3] [nM] | IC50 [2, 4] [nM]
1 | O[C@]1(c2cccc(-c3csc(-c4c[nH]c5ncccc45)n3)c2)CCc2cccnc21 (single isomer, unassigned) [Example 1] | > 500 | > 500 | –
2 | O[C@@]1(c2cccc(-c3csc(-c4c[nH]c5ncccc45)n3)c2)CCc2cccnc21 (single isomer, unassigned) [Example 2] | ≤ 100 | 100 to 500 | –
3 | CN1CC[C@@](O)(c2cccc(-c3cnc(-c4c[nH]c5ncccc45)s3)c2)C1=O (single isomer, unassigned) [Example 3] | 100 to 500 | – | > 500
4 | CN1CC[C@](O)(c2cccc(-c3cnc(-c4c[nH]c5ncccc45)s3)c2)C1=O (single isomer, unassigned) [Example 4] | > 500 | – | > 500
5 | O[C@@]1(c2cccc(-c3csc(-c4c[nH]c5ncncc45)n3)c2)CCc2cccnc21 (single isomer, unassigned) [Example 5] | ≤ 100 | 100 to 500 | –
6 | O[C@]1(c2cccc(-c3csc(-c4c[nH]c5ncncc45)n3)c2)CCc2cccnc21 (single isomer, unassigned) [Example 6] | 100 to 500 | > 500 | –
7 | O[C@@]1(c2cccc(-c3nc(-c4c[nH]c5ncccc45)cs3)c2)CCc2cccnc21 (single isomer, unassigned) [Example 22] | ≤ 100 | 100 to 500 | –
8 | O[C@]1(c2cccc(-c3nc(-c4c[nH]c5ncccc45)cs3)c2)CCc2cccnc21 (single isomer, unassigned) [Example 23] | 100 to 500 | > 500 | –
9 | O[C@]1(c2cccc(-c3csc(-c4c[nH]c5ncccc45)n3)c2)CCc2scnc21 (single isomer, unassigned) [Example 31] | 100 to 500 | > 500 | –
10 | O[C@@]1(c2cccc(-c3csc(-c4c[nH]c5ncccc45)n3)c2)CCc2scnc21 (single isomer, unassigned) [Example 32] | ≤ 100 | ≤ 100 | –
11 | O[C@@]1(c2cccc(-c3csc(-c4c[nH]c5ncccc45)n3)c2)C=Cc2cccnc21 (single isomer, unassigned) [Example 33] | ≤ 100 | > 500 | –
12 | O[C@]1(c2cccc(-c3csc(-c4c[nH]c5ncccc45)n3)c2)C=Cc2cccnc21 (single isomer, unassigned) [Example 34] | > 500 | > 500 | –
13 | CC1(C)Cc2cccnc2[C@@]1(O)c1cccc(-c2csc(-c3c[nH]c4ncccc34)n2)c1 (single isomer, unassigned) [Example 35] | > 500 | > 500 | –
14 | CC1(C)Cc2cccnc2[C@]1(O)c1cccc(-c2csc(-c3c[nH]c4ncccc34)n2)c1 (single isomer, unassigned) [Example 36] | ≤ 100 | > 500 | –
15 | O[C@]1(c2cccc(-c3csc(-c4c[nH]c5ncccc45)n3)c2)CCCn2ccnc21 (single isomer, unassigned) [Example 37] | > 500 | > 500 | –
16 | O[C@@]1(c2cccc(-c3csc(-c4c[nH]c5ncccc45)n3)c2)CCCn2ccnc21 (single isomer, unassigned) [Example 38] | ≤ 100 | ≤ 100 | –
17 | CN1CC[C@](O)(c2cccc(-c3csc(-c4c[nH]c5nccnc45)n3)c2)C1=O (single isomer, unassigned) [Example 39] | > 500 | – | > 500
18 | CN1CC[C@@](O)(c2cccc(-c3csc(-c4c[nH]c5nccnc45)n3)c2)C1=O (single isomer, unassigned) [Example 40] | ≤ 100 | – | 100 to 500

Row | SMILES | IC50 [1] [nM] | IC50 [2, 3] [nM] | IC50 [2, 4] [nM]
19 | CN1CC[C@@](O)(c2cccc(-c3csc(-c4c[nH]c5ncccc45)n3)c2)C1=O (single isomer, unassigned) [Example 47] | ≤ 100 | – | 100 to 500
20 | CN1CC[C@](O)(c2cccc(-c3csc(-c4c[nH]c5ncccc45)n3)c2)C1=O (single isomer, unassigned) [Example 48] | > 500 | – | > 500
21 | CN1CC[C@](O)(c2cccc(-c3csc(-c4c[nH]c5ncncc45)n3)c2)C1=O (single isomer, unassigned) [Example 52] | 100 to 500 | – | > 500
22 | C[C@@](O)(c1cccc(-c2csc(-c3c[nH]c4ncccc34)n2)c1)c1ccccn1 (single isomer, unassigned) [Example 60] | > 500 | > 500 | –
23 | C[C@](O)(c1cccc(-c2csc(-c3c[nH]c4ncccc34)n2)c1)c1ccccn1 (single isomer, unassigned) [Example 61] | > 500 | > 500 | –
24 | C[C@](O)(c1cccc(-c2csc(-c3c[nH]c4ncccc34)n2)c1)c1nccs1 (single isomer, unassigned) [Example 64] | > 500 | > 500 | –
25 | C[C@@](O)(c1cccc(-c2csc(-c3c[nH]c4ncccc34)n2)c1)c1nccs1 (single isomer, unassigned) [Example 65] | ≤ 100 | > 500 | –
26 | C[C@@](O)(c1cccc(-c2csc(-c3c[nH]c4nccnc34)n2)c1)c1ncc[nH]1 (single isomer, unassigned) [Example 77] | > 500 | > 500 | –
27 | C[C@](O)(c1cccc(-c2csc(-c3c[nH]c4nccnc34)n2)c1)c1ncc[nH]1 (single isomer, unassigned) [Example 78] | > 500 | > 500 | –
28 | Cn1ccnc1[C@@](C)(O)c1cccc(-c2csc(-c3c[nH]c4ncccc34)n2)c1 (single isomer, unassigned) [Example 79] | > 500 | > 500 | –
29 | C[C@@](O)(c1cccc(-c2csc(-c3c[nH]c4ncccc34)n2)c1)c1ncc[nH]1 (single isomer, unassigned) [Example 80] | > 500 | > 500 | –
30 | O=C1Nc2cccnc2[C@]1(O)c1cccc(-c2csc(-c3c[nH]c4ncccc34)n2)c1 (single isomer, unassigned) [Example 89] | > 500 | – | > 500
31 | O=C1Nc2cccnc2[C@@]1(O)c1cccc(-c2csc(-c3c[nH]c4ncccc34)n2)c1 (single isomer, unassigned) [Example 90] | > 500 | – | > 500
32 | CN1CC[C@@](O)(c2cccc(-c3nc(-c4c[nH]c5ncccc45)sc3F)c2)C1=O (single isomer, unassigned) [Example 99] | ≤ 100 | – | > 500
33 | O[C@@H]1C[C@@](O)(c2cccc(-c3csc(-c4c[nH]c5ncccc45)n3)c2)c2ncccc21 (single isomer, unassigned) [Example 101] | 100 to 500 | > 500 | –
34 | O[C@H]1C[C@](O)(c2cccc(-c3csc(-c4c[nH]c5ncccc45)n3)c2)c2ncccc21 (single isomer, unassigned) [Example 102] | > 500 | > 500 | –
35 | O[C@H]1C[C@@](O)(c2cccc(-c3csc(-c4c[nH]c5ncccc45)n3)c2)c2ncccc21 (single isomer, unassigned) [Example 103] | > 500 | > 500 | –
36 | O[C@@H]1C[C@](O)(c2cccc(-c3csc(-c4c[nH]c5ncccc45)n3)c2)c2ncccc21 (single isomer, unassigned) [Example 104] | > 500 | > 500 | –
